Source: PubChem BioAssay (NCI)
Several values for one entry are separate records, joined by “and”; a condition that tells them apart may be missing. Equal entries are not always repeated.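 Assay format: 96-well plates, 48-hour exposure. Here, GI50 denotes the concentration required for 50% inhibition of growth. Definition used: TGI = concentration required for complete inhibition of growth.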

Experiments:
Assay in all cases: NCI tumour cell line growth inhibition, 48 h
[1] = system: UO-31 renal
[2] = system: KM12 colon
[3] = system: A498 renal
[4] = system: CCRF-CEM leukemia
[5] = system: SNB-19 CNS
[6] = system: SF-268 CNS
[7] = system: RXF 393 renal
[8] = system: HOP-62 NSCLC
[9] = system: MALME-3M melanoma
[10] = system: P388/ADR leukemia
[11] = system: RXF-631 renal

CC(=O)Nc1ccc(-c2nc3ccccc3s2)cc1
TGI [1]: > 100 µM
TGI [2]: > 100 µM
TGI [3]: 38.4 µM
TGI [4]: > 100 µM
TGI [5]: > 100 µM
TGI [6]: > 100 µM
TGI [7]: 74.4 µM
TGI [8]: 45.8 µM

COc1cc(/C=C/C(=O)O)ccc1C(=O)OCc1ccccc1
TGI [1]: > 100 µM
TGI [2]: > 100 µM
TGI [9]: > 100 µM
TGI [3]: > 100 µM
TGI [4]: > 100 µM
TGI [5]: > 100 µM
TGI [6]: > 100 µM
TGI [10]: > 100 µM
TGI [7]: > 100 µM
TGI [8]: > 100 µM

COC(=O)CN(C)P(=O)(N1CC1)N1CC1
TGI [1]: > 100 µM
TGI [11]: > 100 µM
TGI [2]: > 100 µM
TGI [9]: > 100 µM
TGI [4]: > 100 µM
TGI [5]: > 100 µM
TGI [6]: > 100 µM
TGI [7]: > 100 µM

Cc1cccc(C(C)C)c1NC(=O)CC1Sc2ccccc2NC1=O (stereo not drawn)
TGI [1]: > 100 µM
TGI [11]: > 100 µM
TGI [2]: > 100 µM
TGI [9]: 94.2 µM
TGI [3]: > 100 µM
TGI [4]: > 100 µM
TGI [5]: > 100 µM
TGI [6]: > 100 µM
TGI [7]: > 100 µM
TGI [8]: > 100 µM

CN1CCN(CN2C(=O)C3C4C=CC(C3C2=O)C2C(=O)N(CN3CCN(C)CC3)C(=O)C42)CC1 (stereo not drawn)
TGI [1]: > 100 µM
TGI [2]: > 100 µM
TGI [9]: > 92 µM
TGI [4]: > 100 µM
TGI [5]: > 100 µM
TGI [6]: > 100 µM
TGI [7]: > 70.2 µM
TGI [8]: > 87.3 µM

CCCC(O)C(NC(=O)CCl)C(=O)O (stereo not drawn)
TGI [1]: > 100 µM
TGI [2]: > 100 µM
TGI [9]: > 100 µM
TGI [3]: > 100 µM
TGI [4]: > 100 µM
TGI [5]: > 100 µM
TGI [6]: > 100 µM
TGI [10]: > 100 µM
TGI [7]: > 100 µM
TGI [8]: > 100 µM

COc1cc2c3c(c4cc(OC)c(OC)cc4c2cc1OC)C(=O)C1CCC(=O)N1C3 (stereo not drawn)
TGI [2]: > 100 µM
TGI [9]: 83 µM
TGI [3]: > 100 µM
TGI [4]: 30.8 µM
TGI [6]: > 100 µM
TGI [7]: 89.6 µM
TGI [8]: 59.3 µM

O=C(CC(=O)c1ccccc1)CC(O)(c1ccccc1)c1ccccc1
TGI [1]: 18.4 µM
TGI [2]: 21.9 µM
TGI [9]: 25.4 µM
TGI [3]: 25.1 µM
TGI [4]: 26 µM
TGI [5]: 35.3 µM
TGI [6]: 24.6 µM
TGI [8]: 12 µM

CC12CCC3C(CCC4=CC(O)CCC43C=O)C1(O)CCC2c1ccc(=O)oc1 (stereo not drawn)
GI50 [1]: 0.05 µM
TGI [1]: 0.127 µM and 0.057 µM
GI50 [2]: 0.05 µM
TGI [2]: 0.0935 µM and 0.0832 µM
GI50 [3]: 0.05 µM
TGI [3]: 0.0418 µM and 0.113 µM
GI50 [4]: 0.0115 µM and 0.05 µM
TGI [4]: 0.129 µM and 0.523 µM
GI50 [5]: 0.05 µM
TGI [5]: 0.0224 µM and 0.101 µM
GI50 [6]: 0.00153 µM
TGI [6]: 0.0154 µM
GI50 [10]: 89 µM
GI50 [7]: 0.00127 µM
TGI [7]: 0.00801 µM
GI50 [8]: 0.00158 µM
TGI [8]: 0.0147 µM and 0.0573 µM

CC(=O)OC1(C#N)CC2OC1C1C2N=NN1C(=O)OC(C)(C)C (stereo not drawn)
TGI [1]: > 100 µM
TGI [11]: > 100 µM
TGI [9]: 48.3 µM
TGI [4]: > 100 µM
TGI [6]: > 100 µM
TGI [7]: > 100 µM
TGI [8]: > 100 µM
